Results published in US5650442A (priority 1994, dated 1997).

Tests used:
[1] = system: Chinese hamster V79 lung fibroblasts; assay: Radiation survival of hypoxic V79 cells (metabolism-mediated oxygen depletion), clonogenic assay, SER; type: cell-based; conditions: hypoxic; for SER: 1% surviving fraction level
Protocol: (§1) Chinese hamster V79 lung fibroblasts were cultured in F12 medium supplemented with 10% fetal calf serum and antibiotics. […] The assay system was specifically designed to evaluate radiation sensitivity of cells exposed to radiation under both aerobic and hypoxic conditions (Mitchell et al., Radiat. Res., 96, 422-428 (1983); Russo et al., Radiat. Res., 103, 232-239 (1985); and DeGraff et al., Int. J. Radiat. Oncol. Biol. Phys., 16, 1021-1024 (1989)).
When cultured cells were exposed to DEA/NO in subsequent examples, DEA/NO in F12 medium with 10 mM HEPES buffer, pH 7.0, was used. […] Control cells in subsequent examples were exposed to 0.02N NaOH, instead of DEA/NO.
The induction of hypoxia in dense cell suspensions by metabolism-mediated oxygen depletion was carried out as described by Mitchell et al. (supra) and Phillips et al. (Int. J. Radiat. Oncol. Biol. Phys., 12, 1627-1635 (1986)). Briefly, stock cultures of exponentially growing Chinese hamster V79 lung fibroblasts in 850 cm^2 roller bottles were trypsinized, rinsed with medium, and counted. Samples of 10^8 cells were then placed in 15 ml centrifuge tubes, centrifuged at 1,000 rpm for 5 min at 25° C., and rinsed once with medium or medium containing DEA/NO (final concentrations ranging from 0.1-2.0 mM), nitrite, diethylamine, or DEA/NO that had been allowed to decompose in full medium overnight at 37° C.
The cell suspension was taken up into a 3 ml glass syringe with a 18 gauge spinal needle. Air bubbles were removed, and a 25 gauge needle was fitted onto the syringe. The syringe was rotated by hand at room temperature for 20 min to allow for cellular metabolic oxygen consumption. The syringe was then placed in a lucite block and irradiated. After a given dose of radiation, 1-3 drops of cell suspension were discarded, and 1-2 drops were collected in tubes containing drug-free medium. In this manner an entire hypoxic survival curve for a given treatment condition can be obtained from a single syringe.
Hypoxic Chinese hamster V79 lung fibroblasts of Example 2 were irradiated at room temperature with 4 MeV photons from a linear accelerator at a dose rate of 1.5 Gy/min. Full electron equilibrium was ensured for all irradiations.
Following irradiation, the various cell suspensions were pipetted, counted, diluted, and plated for macroscopic colony formation. Each dose determination was plated in triplicate and experiments were repeated a minimum of two times. Plates were incubated for seven days, after which colonies were fixed with methanol/acetic acid (3:1), stained with crystal violet, and counted. Colonies containing >50 cells were scored and graphed as FIGS. 1-3. Error bars in the graphs represent the standard deviation of the mean and are shown when larger than the symbol used to designate a data point. Survival curve data were fitted using a linear quadratic model of Albright (Radiat. Res., 112, 331-340 (1987)), and the survival curves shown in the figures represent the best fit curves for the experimental data points. Sensitizer enhancement ratios (SER) were calculated by dividing the radiation dose for control hypoxic conditions by the radiation dose for various agents under hypoxic conditions at the 1% surviving fraction level.
Radiation survival curves for V79 cells exposed to varying concentrations of DEA/NO and various DEA/NO decomposition products under hypoxic conditions (metabolic hypoxia induction) are shown in FIG. 1A, which is a graph of the surviving fraction versus dose (Gy).

[2] = system: human MCF7 breast cancer cells; assay: Chemosensitization of human breast cancer cells to melphalan or thiotepa, clonogenic assay; conditions: 1 hr, 37° C.; for DEA/NO enhancement ratio at the 10% surviving fraction level: 1 mM DEA/NO
Protocol: FIG. 10 is a graph of surviving fraction versus concentration (μg/ml) of melphalan in the absence or presence of 1 mMDEA/NO or released DEA/NO showing the survival curves for human MCF7 breast cancer cells exposed to melphalan in the absence or presence of 1 mM DEA/NO or released DEA/NO.
FIG. 11 is a graph of surviving fraction versus concentration (μg/ml) of thiotepa in the absence or presence of 1 mM DEA/NO or released DEA/NO showing the survival curves for human MCF7 breast cancer cells exposed to thiotepa in the absence or presence of 1 mM DEA/NO or released DEA/NO.
as §1
Human breast cancer cells in log phase were exposed for 1 hr at 37° C. to varying concentrations of melphalan or thiotepa in the absence or presence of 1 mM DEA/NO or released DEA/NO. […] Cytotoxicity was evaluated using the clonogenic assay of Example 2.
FIGS. 10 and 11 are graphs of surviving fraction versus concentration (μg/ml) of melphalan and thiotepa, respectively.

C3H mice = assay: Protection of mice from whole body irradiation; type: in vivo

CCN(CC)/[N+]([O-])=N/[O-].[Na+] [DEA/NO]
extent of radiosensitization ([1]; 0.1 mM): modest | SER ([1]; 0.10 mM, ± SD): 1.1 ± 0.06 | SER ([1]; 0.50 mM, ± SD): 2.1 ± 0.40 | SER ([1]; 1.00 mM): 2.4 | effectiveness in eliminating radiation resistance due to hypoxia ([1]; 2.0 mM): just as effective as oxygen in eliminating radiation resistance due to hypoxia | SER ([1]; 2.00 mM, ± SD): 2.9±0.4 | extent of radiosensitization ([1]; 0.5 and 1.0 mM): significant enhancement was observed | enhancement of chemosensitivity / cytotoxicity ([2]; melphalan and thiotepa, 1 mM): significantly enhanced the chemosensitivity of human breast cancer cells to melphalan and thiotepa | DEA/NO enhancement ratio at the 10% surviving fraction level ([2]; melphalan): 3.3 | DEA/NO enhancement ratio at the 10% surviving fraction level ([2]; thiotepa): 1.3 | Percent survival of mice at 30 days (C3H mice; 700 cGy, 80 mg/kg i.p. 10 min before): 100% | Percent survival of mice at 30 days (C3H mice; 700 cGy, 80 mg/kg i.p. 30 min before): 100% | Percent survival of mice at 30 days (C3H mice; 800 cGy, 80 mg/kg i.p. 10 min before): 100% | Percent survival of mice at 30 days (C3H mice; 800 cGy, 80 mg/kg i.p. 30 min before): 90% | Percent survival of mice at 30 days (C3H mice; 900 cGy, 80 mg/kg i.p. 10 min before): 77% | Percent survival of mice at 30 days (C3H mice; 900 cGy, 80 mg/kg i.p. 30 min before): 80% | Percent survival of mice at 30 days (C3H mice; 1000 cGy, 80 mg/kg i.p. 10 min before): 44% | Percent survival of mice at 30 days (C3H mice; 1000 cGy, 80 mg/kg i.p. 30 min before): 10%
